Columns and labels:
[1] = test system: WT and mutants (Leu to Ala, Leu to Val and Leu to Ile) of Brd2(2); experiment: ITC of compound into protein (FIG. 16); type: binding, human; conditions: 250 μM compound into 25 μM protein; result in words
Method: To investigate the utility of the new compounds further, the inventors performed isothermal titration experiments by titrating 250 μM compound solutions (AL, ME-Am1, ET-Am1, ME-Am2, ET-Am2, 9-ME, 9-ET, 9-ME-Am1 and 9-ET-Am1) 25 μM protein solutions (WT and mutants (Leu to Ala, Leu to Val and Leu to Ile) of Brd2(2)).
ITC experiments were carried out on a ITC200 instrument from MicroCal™ Experiments were conducted at 3 different temperatures 15° C., 25° C. and 30° C., while stirring at 1000 rpm. Buffers of proteins, peptide and compounds were matched to 20 mM HEPES pH 7.5 at 25° C. and 100 mM NaCl. Frozen protein was buffer exchanged as described for the DSF experiments. Each titration comprised 1 initial injection of 0.4 μl lasting 0.8 s, followed by 19 injections of 2 μl lasting 4 s each at 2 min intervals. The initial injection was discarded during data analysis. Standard and reverse titrations were conducted depending on the binding partners.
All the data was fitted to a single binding site model using the Microcal LLC ITC200 Origin software provided by the manufacturer to yield enthalpies of binding (ΔH) and binding constants (Kas). Further thermodynamic parameters were calculated from these values (changes in entropy ΔS, changes in free energy AG and dissociation constants (Kds)).

[2] = target: T1, Brd2(2)*(Met438-Ala) (Homo sapiens, UniProt P25440, M438A); experiment: DSF thermal shift; type: binding; conditions: mutant
T1 construct: Plasmids of the eight single BET bromodomain constructs Brd2(1), Brd2(2), Brd3(1), Brd3(2); His6 (N); made in house; host or cells: E. coli BL21(DE3)
T1 sequence (P25440 344-453 M438A limits assumed): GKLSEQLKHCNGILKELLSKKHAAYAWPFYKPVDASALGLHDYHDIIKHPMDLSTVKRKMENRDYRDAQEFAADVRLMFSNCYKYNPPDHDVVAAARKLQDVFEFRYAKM
Method: (§1) DSF assays were performed on a LightCycler®480 from Roche or a Mx3005P Real Time PCR machine from Stratagene. Prior to DSF assays, frozen proteins were buffer exchanged using Vivaspin®6 concentrators with a 10 kDa cutoff on a Centrifuge 5430 from Eppendorf at a speed of 6000×g to remove glycerol and to buffer the proteins in 20 mM HEPES pH 7.5 at 25° C. and 100 mM NaCl. SYPRO®Orange from Invitrogen Molecular Probes® was used as a reporter dye to monitor the denaturing process of the proteins. Samples were assayed on a 96-well plate with final protein concentrations of 2 μM for the LightCycler®480 and 6 μM for Mx3005P. Compounds were added at a final concentration of 10 μM for the LightCycler®480 and 30 μM for Mx3005P, while the tetra acetylated histone peptide was added to a final concentration of 100 μM and 300 μM respectively. […] The temperature was raised with a step of 0.6° C. per minute from 37° C. to 95° C. with the LightCycler®480 collecting 39 measurements per ° C., and 1° C. per minute from 25° C. to 95° C. with Mx3005P, collecting fluorescence readings at the end of each interval. Each sample was run in triplicates.
(§2) Collected data was analysed by IGOR Pro 6, a scientific software tool from Wave Metrics, Inc. Analysis was done following the recommendations of Niesen et al.. Fluorescence intensity was plotted as a function of temperature, generating a sigmoidal curve described by a two-state transition from folded to unfolded protein. Curves were fitted by the following sigmoidal equation: […]
(§3) A1 and A2 are the values of minimum and maximum intensities, respectively, x0 is the inflection point and dx is the rate. Fitted curves were differentiated in IGOR Pro 6 and the maximum of the first derivative was identified using the same program. These values correspond to the inflection points of the transition curves and thus to the melting temperatures of the proteins (Tm).

[3] = target: T2, Brd2(1)*(Met165-Leu) (Homo sapiens, UniProt P25440, M165L); experiment: DSF thermal shift; type: binding; conditions: mutant
T2 construct: Plasmids of the eight single BET bromodomain constructs Brd2(1), Brd2(2), Brd3(1), Brd3(2); His6 (N); made in house; host or cells: E. coli BL21(DE3)
T2 sequence (P25440 74-180 M165L limits assumed): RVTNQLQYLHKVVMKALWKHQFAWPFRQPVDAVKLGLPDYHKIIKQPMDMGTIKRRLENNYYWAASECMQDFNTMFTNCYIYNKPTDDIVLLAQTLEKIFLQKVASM
Method: as §1, §2, §3

[4] = target: T3, Brd2(2)*(Met438-Leu) (Homo sapiens, UniProt P25440, M438L); experiment: DSF thermal shift; type: binding; conditions: mutant
T3 construct: Plasmids of the eight single BET bromodomain constructs Brd2(1), Brd2(2), Brd3(1), Brd3(2); His6 (N); made in house; host or cells: E. coli BL21(DE3)
T3 sequence (P25440 344-453 M438L limits assumed): as the sequence (P25440 344-453 M438A limits assumed) above, with A95L counted along it
Method: as §1, §2, §3

[5] = target: Brd2(1)*(Met165Ala) (Homo sapiens, UniProt P25440, M165A); experiment: DSF thermal shift; type: binding; set-up: Plasmids of the eight single BET bromodomain constructs Brd2(1), Brd2(2), Brd3(1), Brd3(2); His6 (N); made in house; host or cells: E. coli BL21(DE3); conditions: mutant
Sequence of Brd2(1)*(Met165Ala) (P25440 74-180 M165A limits assumed): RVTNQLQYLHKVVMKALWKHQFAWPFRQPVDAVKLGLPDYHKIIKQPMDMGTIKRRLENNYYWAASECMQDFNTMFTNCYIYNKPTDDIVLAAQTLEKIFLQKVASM
Method: as §1, §2, §3

[6] = target: T4, Brd2(1) (Homo sapiens, UniProt P25440); experiment: DSF thermal shift; type: binding; conditions: wild type
T4 construct: Plasmids of the eight single BET bromodomain constructs Brd2(1), Brd2(2), Brd3(1), Brd3(2); His6 (N); made in house; host or cells: E. coli BL21(DE3)
T4 sequence (P25440 74-180 limits assumed): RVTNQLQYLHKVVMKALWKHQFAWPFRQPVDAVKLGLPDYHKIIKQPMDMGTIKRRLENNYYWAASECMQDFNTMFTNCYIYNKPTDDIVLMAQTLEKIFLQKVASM
Method: as §1, with “Prior to DSF assays, frozen proteins were buffer exchanged using Vivaspin®6 concentrators with a 10 kDa cutoff on a Centrifuge 5430 from Eppendorf at a speed of 6000×g to remove glycerol and to buffer the proteins in 20 mM HEPES pH 7.5 at 25° C. and 100 mM NaCl.” left out
as §2, §3

[7] = target: T5, Brd2(2) (Homo sapiens, UniProt P25440); experiment: DSF thermal shift; type: binding; conditions: wild type
T5 construct: Plasmids of the eight single BET bromodomain constructs Brd2(1), Brd2(2), Brd3(1), Brd3(2); His6 (N); made in house; host or cells: E. coli BL21(DE3)
T5 sequence (P25440 344-453 limits assumed): as the sequence (P25440 344-453 M438A limits assumed) above, with A95M counted along it
Method: as §1, with “Prior to DSF assays, frozen proteins were buffer exchanged using Vivaspin®6 concentrators with a 10 kDa cutoff on a Centrifuge 5430 from Eppendorf at a speed of 6000×g to remove glycerol and to buffer the proteins in 20 mM HEPES pH 7.5 at 25° C. and 100 mM NaCl.” left out
as §2, §3

[8] = target: T6, Brd2(2)*(Trp370His) (Homo sapiens, UniProt P25440, W370H); experiment: DSF thermal shift; type: binding; conditions: mutant
T6 construct: Plasmids of the eight single BET bromodomain constructs Brd2(1), Brd2(2), Brd3(1), Brd3(2); His6 (N); made in house; host or cells: E. coli BL21(DE3)
T6 sequence (P25440 344-453 W370H limits assumed): as the sequence (P25440 344-453 M438A limits assumed) above, with W27H, A95M counted along it
Method: as §1, with “Prior to DSF assays, frozen proteins were buffer exchanged using Vivaspin®6 concentrators with a 10 kDa cutoff on a Centrifuge 5430 from Eppendorf at a speed of 6000×g to remove glycerol and to buffer the proteins in 20 mM HEPES pH 7.5 at 25° C. and 100 mM NaCl.” left out
as §2, §3

[9] = target: T7, Brd2(2)*(Trp370Phe) (Homo sapiens, UniProt P25440, W370F); experiment: DSF thermal shift; type: binding; conditions: mutant
T7 construct: Plasmids of the eight single BET bromodomain constructs Brd2(1), Brd2(2), Brd3(1), Brd3(2); His6 (N); made in house; host or cells: E. coli BL21(DE3)
T7 sequence (P25440 344-453 W370F limits assumed): as the sequence (P25440 344-453 M438A limits assumed) above, with W27F, A95M counted along it
Method: as §1, with “Prior to DSF assays, frozen proteins were buffer exchanged using Vivaspin®6 concentrators with a 10 kDa cutoff on a Centrifuge 5430 from Eppendorf at a speed of 6000×g to remove glycerol and to buffer the proteins in 20 mM HEPES pH 7.5 at 25° C. and 100 mM NaCl.” left out
as §2, §3

[10] = target: T8, Brd2(1)*(Trp097His) (Homo sapiens, UniProt P25440, W97H); experiment: DSF thermal shift; type: binding; conditions: mutant
T8 construct: Plasmids of the eight single BET bromodomain constructs Brd2(1), Brd2(2), Brd3(1), Brd3(2); His6 (N); made in house; host or cells: E. coli BL21(DE3)
T8 sequence (P25440 74-180 W97H limits assumed): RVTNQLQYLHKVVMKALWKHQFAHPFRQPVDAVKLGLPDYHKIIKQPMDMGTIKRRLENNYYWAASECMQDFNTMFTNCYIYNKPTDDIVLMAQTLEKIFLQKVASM
Method: as §1, with “Prior to DSF assays, frozen proteins were buffer exchanged using Vivaspin®6 concentrators with a 10 kDa cutoff on a Centrifuge 5430 from Eppendorf at a speed of 6000×g to remove glycerol and to buffer the proteins in 20 mM HEPES pH 7.5 at 25° C. and 100 mM NaCl.” left out
as §2, §3

[11] = target: T9, Brd2(1)*(Trp097Phe) (Homo sapiens, UniProt P25440, W97F); experiment: DSF thermal shift; type: binding; conditions: mutant
T9 construct: Plasmids of the eight single BET bromodomain constructs Brd2(1), Brd2(2), Brd3(1), Brd3(2); His6 (N); made in house; host or cells: E. coli BL21(DE3)
T9 sequence (P25440 74-180 W97F limits assumed): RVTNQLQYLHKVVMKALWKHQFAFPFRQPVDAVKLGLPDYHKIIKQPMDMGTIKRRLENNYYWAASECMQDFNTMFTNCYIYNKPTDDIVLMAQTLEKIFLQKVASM
Method: as §1, with “Prior to DSF assays, frozen proteins were buffer exchanged using Vivaspin®6 concentrators with a 10 kDa cutoff on a Centrifuge 5430 from Eppendorf at a speed of 6000×g to remove glycerol and to buffer the proteins in 20 mM HEPES pH 7.5 at 25° C. and 100 mM NaCl.” left out
as §2, §3

SMILES | Selectivity for Brd2(2) mutants relative to wild type by ITC (FIG. 16) [1] | ΔTm Brd2(2)*(Met165-Ala) [2] [K] | ΔTm Brd2(1)*(Met165-Leu) [3] [K] | ΔTm Brd2(2)*(Met165-Leu) [4] [K] | ΔTm Brd2(1)*(Met165-Ala) [5] [K] | ΔTm Brd2(1) [6] [K] | ΔTm Brd2(2) [7] [K] | other results
C=CC[C@@H](C(=O)OC)[C@@H]1N=C(c2ccc(Cl)cc2)c2cc(OC)ccc2-n2c(C)nnc21 (racemic) [AL, (+−)methyl (R)-2-((S)-6-(4-chlorophenyl)-8-methoxy-1-methyl-4H-benzo[f][1,2,4]triazolo[4,3-a][1,4]diazepin-4-yl)pent-4-enoate] | higher selectivity for the mutants relative to wild types |  |  |  |  |  |  | 
CC[C@@H](C(=O)OC)[C@@H]1N=C(c2ccc(Cl)cc2)c2ccc(OC)cc2-n2c(C)nnc21 (racemic) [Compound 9-ET, (+−) methyl (R)-2-((S)-6-(4-chlorophenyl)-9-methoxy-1-methyl-4H-benzo[f][1,2,4]triazolo[4,3-a][1,4]diazepin-4-yl)butanoate] | higher selectivity for the mutants relative to wild types |  |  |  |  |  |  | 
COC(=O)[C@H](C)[C@@H]1N=C(c2ccc(Cl)cc2)c2ccc(OC)cc2-n2c(C)nnc21 (racemic) [Compound 9-ME, (+−) methyl (R)-2-((S)-6-(4-chlorophenyl)-9-methoxy-1-methyl-4H-benzo[f][1,2,4]triazolo[4,3-a][1,4]diazepin-4-yl)propanoate] | higher selectivity for the mutants relative to wild types |  |  |  |  |  |  | 
CCNC(=O)[C@H](C)[C@@H]1N=C(c2ccc(Cl)cc2)c2ccc(OC)cc2-n2c(C)nnc21 (racemic) [Compound 9-ME-Am1, (+−) (R)-2-((S)-6-(4-chlorophenyl)-9-methoxy-1-methyl-4H-benzo[f][1,2,4]triazolo[4,3-a][1,4]diazepin-4-yl)-N-ethylpropanamide] | higher selectivity for the mutants relative to wild types |  |  |  |  |  |  | 
CCNC(=O)[C@H](CC)[C@@H]1N=C(c2ccc(Cl)cc2)c2cc(OC)ccc2-n2c(C)nnc21 (racemic) [ET-Am1, (+−) (R)-2-((S)-6-(4-chlorophenyl)-8-methoxy-1-methyl-4H-benzo[f][1,2,4]triazolo[4,3-a][1,4]diazepin-4-yl)-N-ethylbutanamide] | higher selectivity for the mutants relative to wild types |  |  |  |  |  |  | 
CC[C@@H](C(=O)N(CC)CC)[C@@H]1N=C(c2ccc(Cl)cc2)c2cc(OC)ccc2-n2c(C)nnc21 (racemic) [ET-Am2, (+−) (R)-2-((S)-6-(4-chlorophenyl)-8-methoxy-1-methyl-4H-benzo[f][1,2,4]triazolo[4,3-a][1,4]diazepin-4-yl)-N,N-diethylbutanamide] | higher selectivity for the mutants relative to wild types |  |  |  |  |  |  | 
CN1Cc2cc(NS(=O)(=O)c3ccc(-c4ccccc4)cc3)ccc2NC1=O [Compound 48, N-(3-methyl-2-oxo-1,2,3,4-tetrahydroquinazolin-6-yl)-[1,1′-biphenyl]-4-sulfonamide] |  | 0.0 ± 0.1 | 0.0 ± 0.1 | 0.0 ± 0.1 | 1.5 ± 0.4 | 0.5 ± 0.2 | 0.0 ± 0.2 | 
Cc1cc(C)cc(S(=O)(=O)Nc2ccc3c(c2)CN(C)C(=O)N3)c1 [Compound 49, 3,5-dimethyl-N-(3-methyl-2-oxo-1,2,3,4-tetrahydroquinazolin-6-yl)benzenesulfonamide] |  | 2.5 ± 0.2 | 4.1 ± 0.6 | 4.9 ± 0.3 | 1.1 ± 0.5 | 2.6 ± 0.5 | 2.8 ± 0.2 | 
COc1cc(C)ccc1S(=O)(=O)Nc1ccc2c(c1)CN(C)C(=O)N2 [Compound 52, 2-methoxy-4-methyl-N-(3-methyl-2-oxo-1,2,3,4-tetrahydroquinazolin-6-yl)benzenesulfonamide] |  | 2.0 ± 0.2 | 3.1 ± 0.2 | 2.4 ± 0.1 | 1.2 ± 0.2 | 4.7 ± 0.2 | 2.8 ± 0.2 | 
COc1ccc(S(=O)(=O)Nc2ccc3c(c2)CN(C)C(=O)N3)c(OC)c1 [Compound 54, 2,4-dimethoxy-N-(3-methyl-2-oxo-1,2,3,4-tetrahydroquinazolin-6-yl)benzenesulfonamide] |  | 2.3 ± 0.1 | 2.7 ± 0.3 | 2.4 ± 0.4 | 1.5 ± 0.2 | 2.4 ± 0.2 | 1.6 ± 0.2 | 
COc1ccccc1S(=O)(=O)Nc1ccc2c(c1)CN(C)C(=O)N2 [PFI-1, reference compound] |  | 1.7 ± 0.1 | 1.3 ± 0.3 | 2.1 ± 0.3 | 1.6 ± 0.1 | 4.5 ± 0.3 | 4.5 ± 0.2 | ΔTm Brd2(2)*(Tryp370-His) [8]: 1.8 ± 0.0 K; ΔTm Brd2(2)*(Tryp370-Phe) [9]: 2.9 ± 0.3 K; ΔTm Brd2(1)*(Tryp097-His) [10]: 1.9 ± 0.5 K; ΔTm Brd2(1)*(Tryp097-Phe) [11]: 2.6 ± 0.4 K

— US20170122958A1, “Enzymes Functional Probes” (University of Dundee, priority 2013, published 2017)
